Drawing on PubChem BioAssay AID1745844 (Carcinogenic Potency Database (CPDB), 2022), this text covers TD50 and carcinogen call for 6 molecules.

The subject of this series is rodent lifetime carcinogenesis bioassay, tumor incidence TD50. The experiment in a line: carcinogenic potency in animals, long-term in vivo studies, CPDB compilation (AID 1745844).
Setting [1] is: rat, strain Sprague-Dawley, females, in feed, site: mammary gland, lesion: adenocarcinoma, dosed 46 weeks, study length 66 weeks.
Where [2] appears, read: rat, strain Sprague-Dawley, females, in feed, site: mammary gland, lesion: several types, types named in the paper, dosed 46 weeks, study length 66 weeks.

Activity calls are given as the source filed them. No rule for the calls is given here.

In the case of `O=C1NCCN1`, the TD50 is, setting by setting: (mouse, strain B6AKF1, females, oral dosing, site: any site (literature study), lesion: several types, types named in the paper, dosed 76 weeks, study length 76 weeks) 473 mg/kg/day (inactive); (mouse, strain B6AKF1, females, oral dosing, site: lung, lesion: adenoma, dosed 76 weeks, study length 76 weeks) 505 mg/kg/day (inactive); (mouse, strain B6AKF1, males, oral dosing, site: liver, lesion: hepatoma, dosed 76 weeks, study length 76 weeks) 500 mg/kg/day (inactive); (mouse, strain B6C3F1, males, oral dosing, site: any site (literature study), lesion: several types, types named in the paper, dosed 76 weeks, study length 76 weeks) 87.1 mg/kg/day (inactive); (mouse, strain B6C3F1, males, oral dosing, site: liver, lesion: hepatoma, dosed 76 weeks, study length 76 weeks) 242 mg/kg/day (inactive); (mouse, strain B6C3F1, males, oral dosing, site: lung, lesion: adenoma, dosed 76 weeks, study length 76 weeks) 242 mg/kg/day (inactive). The carcinogen call was “negative (inactive)” (mouse, strain B6AKF1, females, oral dosing, site: liver, lesion: hepatoma, dosed 76 weeks, study length 76 weeks); “negative (inactive)” (mouse, strain B6AKF1, males, oral dosing, site: any site (literature study), lesion: several types, types named in the paper, dosed 76 weeks, study length 76 weeks); “negative (inactive)” (mouse, strain B6AKF1, males, oral dosing, site: lung, lesion: adenoma, dosed 76 weeks, study length 76 weeks); “negative (inactive)” (mouse, strain B6C3F1, females, oral dosing, site: any site (literature study), lesion: one or several types, types not named, dosed 76 weeks, study length 76 weeks); “negative (inactive)” (mouse, strain B6C3F1, females, oral dosing, site: liver, lesion: hepatoma, dosed 76 weeks, study length 76 weeks); “negative (inactive)” (mouse, strain B6C3F1, females, oral dosing, site: lung, lesion: several types, types named in the paper, dosed 76 weeks, study length 76 weeks).
On to `S=[Se]`, for which the TD50 runs as follows: (mouse, strain B6C3F1, females, by gavage, site: any site (literature study), lesion: several types, types named in the paper, dosed 103 weeks, study length 104 weeks) 69.7 mg/kg/day; (mouse, strain B6C3F1, females, by gavage, site: liver + lung, lesion: hepatocellular adenoma + hepatocellular carcinoma + alveolar/bronchiolar adenoma + alveolar/bronchiolar carcinoma, dosed 103 weeks, study length 104 weeks) 46.8 mg/kg/day; (mouse, strain B6C3F1, females, by gavage, site: liver, lesion: hepatocellular adenoma + hepatocellular carcinoma + neoplastic nodule, dosed 103 weeks, study length 104 weeks) 69.3 mg/kg/day; (mouse, strain B6C3F1, females, by gavage, site: liver, lesion: hepatocellular adenoma + hepatocellular carcinoma, dosed 103 weeks, study length 104 weeks) 69.3 mg/kg/day; (mouse, strain B6C3F1, females, by gavage, site: liver, lesion: hepatocellular carcinoma, dosed 103 weeks, study length 104 weeks) 85.2 mg/kg/day; (mouse, strain B6C3F1, females, by gavage, site: lung, lesion: alveolar/bronchiolar adenoma + alveolar/bronchiolar carcinoma, dosed 103 weeks, study length 104 weeks) 137 mg/kg/day. The TD50 is 433 mg/kg/day (mouse, strain B6C3F1, females, by gavage, site: lung, lesion: alveolar/bronchiolar carcinoma, dosed 103 weeks, study length 104 weeks); 735 mg/kg/day (inactive) (mouse, strain B6C3F1, males, by gavage, site: any site (literature study), lesion: several types, types named in the paper, dosed 103 weeks, study length 104 weeks); 202 mg/kg/day (mouse, strain B6C3F1, males, by gavage, site: liver, lesion: hepatocellular adenoma + hepatocellular carcinoma + neoplastic nodule, dosed 103 weeks, study length 104 weeks); 183 mg/kg/day (mouse, strain B6C3F1, males, by gavage, site: lung, lesion: alveolar/bronchiolar adenoma + alveolar/bronchiolar carcinoma, dosed 103 weeks, study length 104 weeks); 19.3 mg/kg/day (rat, strain Fischer 344, females, by gavage, site: any site (literature study), lesion: several types, types named in the paper, dosed 103 weeks, study length 104 weeks); 6.14 mg/kg/day (rat, strain Fischer 344, females, by gavage, site: liver, lesion: hepatocellular adenoma + hepatocellular carcinoma + neoplastic nodule, dosed 103 weeks, study length 104 weeks). Besides, the TD50 was 6.14 mg/kg/day (rat, strain Fischer 344, females, by gavage, site: liver, lesion: hepatocellular carcinoma + neoplastic nodule, dosed 103 weeks, study length 104 weeks); 13.2 mg/kg/day (rat, strain Fischer 344, females, by gavage, site: liver, lesion: hepatocellular carcinoma, dosed 103 weeks, study length 104 weeks); 25 mg/kg/day (rat, strain Fischer 344, males, by gavage, site: any site (literature study), lesion: several types, types named in the paper, dosed 103 weeks, study length 104 weeks); 11.5 mg/kg/day (rat, strain Fischer 344, males, by gavage, site: liver, lesion: hepatocellular adenoma + hepatocellular carcinoma + neoplastic nodule, dosed 103 weeks, study length 104 weeks); 11.5 mg/kg/day (rat, strain Fischer 344, males, by gavage, site: liver, lesion: hepatocellular carcinoma + neoplastic nodule, dosed 103 weeks, study length 104 weeks); 21 mg/kg/day (rat, strain Fischer 344, males, by gavage, site: liver, lesion: hepatocellular carcinoma, dosed 103 weeks, study length 104 weeks).
Turning to `CN(C)NC(=O)CCC(=O)O`, the TD50 by setting is: (mouse, strain B6C3F1, females, in feed, site: any site (literature study), lesion: several types, types named in the paper, dosed 104 weeks, study length 105 weeks) 56400 mg/kg/day (inactive); (mouse, strain B6C3F1, females, in feed, site: liver, lesion: hepatocellular adenoma + hepatocellular carcinoma + neoplastic nodule, dosed 104 weeks, study length 105 weeks) 6820 mg/kg/day; (mouse, strain B6C3F1, females, in feed, site: lung, lesion: alveolar/bronchiolar adenoma + alveolar/bronchiolar carcinoma, dosed 104 weeks, study length 105 weeks) 2920 mg/kg/day; (mouse, strain B6C3F1, males, in feed, site: any site (literature study), lesion: several types, types named in the paper, dosed 104 weeks, study length 105 weeks) 1500 mg/kg/day; (mouse, strain B6C3F1, males, in feed, site: liver, lesion: hepatocellular adenoma + hepatocellular carcinoma + neoplastic nodule, dosed 104 weeks, study length 105 weeks) 2450 mg/kg/day; (mouse, strain B6C3F1, males, in feed, site: liver, lesion: hepatocellular adenoma + hepatocellular carcinoma, dosed 104 weeks, study length 105 weeks) 2450 mg/kg/day. The TD50 was 2150 mg/kg/day (mouse, strain B6C3F1, males, in feed, site: liver, lesion: hepatocellular carcinoma, dosed 104 weeks, study length 105 weeks); 3400 mg/kg/day (mouse, strain B6C3F1, males, in feed, site: lung, lesion: alveolar/bronchiolar adenoma + alveolar/bronchiolar carcinoma, dosed 104 weeks, study length 105 weeks); 1240 mg/kg/day (mouse, strain Swiss albino, females, in drinking water, site: blood vessels, lesion: several types, types named in the paper, dosed 92 weeks, study length 92 weeks); 1370 mg/kg/day (mouse, strain Swiss albino, females, in drinking water, site: lung, lesion: several types, types named in the paper, dosed 92 weeks, study length 92 weeks); 880 mg/kg/day (mouse, strain Swiss albino, males, in drinking water, site: blood vessels, lesion: several types, types named in the paper, dosed 81 weeks, study length 81 weeks); 10900 mg/kg/day (mouse, strain Swiss albino, males, in drinking water, site: kidney, lesion: adenoma, dosed 81 weeks, study length 81 weeks). The TD50 (mouse, strain Swiss albino, males, in drinking water, site: liver, lesion: hepatoma, dosed 81 weeks, study length 81 weeks) was 38800 mg/kg/day (inactive); the TD50 (mouse, strain Swiss albino, males, in drinking water, site: lung, lesion: several types, types named in the paper, dosed 81 weeks, study length 81 weeks) is 1110 mg/kg/day; the TD50 (rat, strain Fischer 344, females, in feed, site: any site (literature study), lesion: several types, types named in the paper, dosed 104 weeks, study length 105 weeks) came out at 3450 mg/kg/day; the TD50 (rat, strain Fischer 344, females, in feed, site: liver, lesion: hepatocellular adenoma + hepatocellular carcinoma + neoplastic nodule, dosed 104 weeks, study length 105 weeks) amounted to 9640 mg/kg/day; the TD50 (rat, strain Fischer 344, females, in feed, site: lung, lesion: alveolar/bronchiolar adenoma, dosed 104 weeks, study length 105 weeks) stood at 4890 mg/kg/day; the TD50 (rat, strain Fischer 344, females, in feed, site: uterus + uterus, endometrium, lesion: leiomyosarcoma + adenocarcinoma, NOS, dosed 104 weeks, study length 105 weeks) turned out to be 1840 mg/kg/day. Moreover, the TD50 by setting is: (rat, strain Fischer 344, females, in feed, site: uterus, endometrium, lesion: adenocarcinoma, NOS, dosed 104 weeks, study length 105 weeks) 2500 mg/kg/day; (rat, strain Fischer 344, females, in feed, site: uterus, lesion: leiomyosarcoma, dosed 104 weeks, study length 105 weeks) 5270 mg/kg/day. Besides, the carcinogen call (rat, strain Fischer 344, males, in feed, site: any site (literature study), lesion: several types, types named in the paper, dosed 104 weeks, study length 105 weeks) is “negative (inactive)”.
For `CN(C)/C=N/c1nnc(/C=C/c2ccc([N+](=O)[O-])o2)o1`, the TD50 (rat, strain Sprague-Dawley, females, in feed, site: any site (literature study), lesion: several types, types named in the paper, dosed 46 weeks, study length 66 weeks) turned out to be 20.6 mg/kg/day; the TD50 (rat, strain Sprague-Dawley, females, in feed, site: duodenum, lesion: adenocarcinoma, dosed 46 weeks, study length 66 weeks) is 336 mg/kg/day; the TD50 (rat, strain Sprague-Dawley, females, in feed, site: duodenum, lesion: adenomatous polyp, dosed 46 weeks, study length 66 weeks) was 336 mg/kg/day; the TD50 (rat, strain Sprague-Dawley, females, in feed, site: forestomach, lesion: squamous-cell papilloma, dosed 46 weeks, study length 66 weeks) was 221 mg/kg/day; the TD50 (rat, strain Sprague-Dawley, females, in feed, site: lung, lesion: alveolar-cell carcinoma, dosed 46 weeks, study length 66 weeks) is 683 mg/kg/day; the TD50 under setting [1] was determined as 20.4 mg/kg/day. For the same molecule, the TD50 under setting [2] was 22.4 mg/kg/day.
On to `C=CCN(CC(C)=O)N=O`, for which the TD50 is, setting by setting: (hamster, strain Syrian Golden, females, by gavage, site: liver, lesion: cholangiocarcinoma, dosed 40 weeks, study length 55 weeks) 21.2 mg/kg/day; (hamster, strain Syrian Golden, females, by gavage, site: liver, lesion: hepatocellular adenoma, dosed 40 weeks, study length 55 weeks) 4.87 mg/kg/day; (hamster, strain Syrian Golden, females, by gavage, site: liver, lesion: several types, types named in the paper, dosed 40 weeks, study length 55 weeks) 3.78 mg/kg/day; (hamster, strain Syrian Golden, females, by gavage, site: nasal mucosa, lesion: carcinoma, dosed 40 weeks, study length 55 weeks) 1.36 mg/kg/day; (hamster, strain Syrian Golden, females, by gavage, site: nasal mucosa, lesion: several types, types named in the paper, dosed 40 weeks, study length 55 weeks) 1.19 mg/kg/day; (rat, strain Fischer 344, females, in drinking water, site: esophagus, lesion: several types, types named in the paper, dosed 50 weeks, study length 85 weeks) 1.25 mg/kg/day. Further, the TD50 (rat, strain Fischer 344, females, in drinking water, site: liver, lesion: hepatocellular carcinoma, dosed 50 weeks, study length 85 weeks) is 0.335 mg/kg/day.
For `CN(C)Nc1nc(-c2ccc([N+](=O)[O-])o2)cs1`, the TD50 runs as follows: (rat, strain Sprague-Dawley, females, in feed, site: all sites, lesion: lymphoblastic lymphoma, dosed 46 weeks, study length 66 weeks) 16.3 mg/kg/day; under setting [1], 0.391 mg/kg/day. For the same molecule, the carcinogen call under setting [2] is “positive”.

For orientation: TD50 means the dose at which the toxic effect under study appears in half of the subjects.
